Here are results for two molecules from patent publication US9629872B2, “Sodium thiosulphate for the treatment of ectopic calcifications” (Institut National de la Sante et de la Recherche Medicale …, priority 2012, dated 2017).

For data set [1] the following is noted: injectable solution of 0.15 g/mL with sodium phosphate dodecahydrate 1.21%, packaged in an ampoule; cited from earlier work.
In data set [2] the test system is dystrophic calcification. Conditions: cited from earlier work.
Data set [3] deals with ossifications (ankle region and popliteal fossa area). The experiment in a line: Topical treatment of a child with progressive osseous heteroplasia (Example 3). The format is in vivo, human. Conditions: before the topical treatment; given with non steroidal anti-inflammatory medications. The protocol:
A child, weighing 27 kg, suffering from progressive osseous heteroplasia presented with significant ossifications that were responsible for a limitation of function in the right foot: in the ankle region, with an estimated surface area of 10 cm×5 cm, and in the popliteal fossa area with 2 patches, having an estimated surface area of 6 cm×4 cm each.
These exploratory tests were carried out in addition to the usual checkup including the exploration of renal function and liver function, as well as calcium and phosphate checkup.

For the molecule `O=S([O-])([O-])=S.[Na+].[Na+]` [sodium thiosulfate], in data set [1], the stability is reported as 3 years. Besides, the superficial calcifications entry in data set [2] (after six months, 10% compresses twice a week, with topical corticosteroid, acetic acid compresses and oral antibiotics) was “dissolved”. For the same molecule, the pains entry in data set [2] (after six months, 10% compresses, combined treatment) was “progressively abated”. In data set [2] (three months later (after the first six months)), the “re-epithelialisation over the wound regions” value is on record as “almost complete re-epithelialisation”.
Take `CC(O)(P(=O)(O)O)P(=O)(O)O` [disodium etidronate]: in data set [3], the “improvement under earlier treatment” value was “No improvement”.
